Legend:
[1] = Morphological analysis by transmission electron microscopy in saline; format: physicochemical; conditions: 1 mg in 1 mL physiological saline
Experimental: The self-assembled nanoparticles (LT-NPs) prepared in Example 1, doxorubicin (DOX), and verteporfin (VPF) were used as samples. 1 mg of each sample was mixed with physiological saline (1 mL). […] The self-assembled nanoparticles (LT-NPs) were mixed with cathepsin B (Cat-B) protease (50 μg/mL). The mixture was allowed to react for 24 h.

CT26 cells [2] = test: Apoptosis and necrosis of CT26 cells (Annexin V/PI flow cytometry); format: cell-based; conditions: CT26, visible light
Experimental: The degrees of apoptosis and necrosis of cancer cells were quantitatively analyzed to accurately evaluate the anticancer effect of the self-assembled nanoparticles (LT-NPs). First, CT26 cells treated with doxorubicin (DOX), verteporfin (VPF), a mixture of doxorubicin and verteporfin (VPF+DOX) or the self-assembled nanoparticles (LT-NPs) and a laser were prepared as above and treated with 5 μg of Annexin V-FITC and 10 μg of PI solution for 10 min. Then, cells were cultured with a cell fixative for 10 min and further cultured with DAPI for 20 min. The degrees of apoptosis and necrosis were quantitatively analyzed using a flow cytometer (BD FACSVerse, BD bioscience, USA).

CT26 cells [3] = test: Immunogenic cell death: calreticulin expression; format: cell-based; conditions: CT26, 5 μM, 24 h, +L/−L
Experimental: (§1) First, CT26 cells were plated in 35 mm cell culture dishes at a density of 1×10^5 cells/dish and doxorubicin (DOX) (5 μM), verteporfin (VPF) (5 μM) or the self-assembled nanoparticles (LT-NPs) (5 μM) were added to each dish. After 24-h culture, one half was exposed by irradiation with visible light using a 671 nm laser at 40 mW for 250 sec (+L) and the other half was not irradiated with visible light for comparison (−L). The immunogenic cell death of the self-assembled nanoparticles (LT-NPs) was evaluated using the cells and the cell culture media.
Cells were stained with APC-conjugated CRT antibody for 12 h and observed with a confocal fluorescence microscope.

CT26 cells [4] = test: Immunogenic cell death: extracellular HSP70 and HMGB1 (Western blotting); format: cell-based; conditions: CT26, 5 μM, 24 h, +L/−L
Experimental: as §1
Before staining the cells with APC-conjugated CRT antibody, culture media were separated from the cells and the extracellular expression levels of HMGB1 and HSP70 were analyzed by Western blotting.
Each cell culture medium was treated with RIPA buffer (Cell Signaling Technology) at 4° C. for 30 min and the protein amount of the lysate was analyzed using a Pierce BCA protein assay kit (Thermo Fisher Scientific) according to the manufacturer's protocol. After SDS-PAGE, proteins were transferred to a PVDF membrane (Bio-Rad), which was then treated with Tris-buffered saline (TBS-T) containing 5% skim milk and 0.1% Tween-20. The membrane was incubated with primary antibodies at 4° C. overnight. HSP70 and HMGB1 antibodies were used as the primary antibodies. The membrane was washed with TBS-T and incubated with a secondary antibody at room temperature for 1 h. The membrane was washed with TBS-T, treated with EZ-Western Lumi Pico or Femto reagent (DoGen), and analyzed using Fusion-Solo software (Vilber) according to the manufacturer's protocol to determine band intensities.

CT26 cells [5] = test: Immunogenic cell death: extracellular ATP release; format: cell-based; conditions: CT26, 5 μM, 24 h, +L/−L
Experimental: as §1
ATP was analyzed using a commercially available ATP assay kit (Beyotime Biotechnology) according to the manufacturer's protocol.

Compound | morphology in physiological saline (TEM) [1] | degree of apoptosis (and necrosis) (CT26 cells [2]) | calreticulin expression (CT26 cells [3]) | HMGB-1 release (CT26 cells [4]) | HSP70 release (CT26 cells [4]) | ATP release (CT26 cells [5]) | proportions of early apoptosis, late apoptosis and necrosis (CT26 cells [2])
COc1cccc2c1C(=O)c1c(O)c3c(c(O)c1C2=O)C[C@@](O)(C(=O)CO)C[C@@H]3O[C@H]1C[C@H](N)[C@H](O)[C@H](C)O1 [doxorubicin] | aggregated | very little apoptosis | lowest | lowest | lowest | lowest | 
verteporfin | aggregated | considerable apoptosis and necrosis | relatively increased | relatively increased | relatively increased | relatively increased | increase the proportion of late apoptosis

From patent US11833204B2, “Visible light-activatable nanoparticles for cancer immunotherapy and use thereof” (KOREA INSTITUTE OF SCIENCE AND TECHNOLOGY, priority 2021, dated 2023)
